Measured values as given in US20070117743A1, “New antitumoral compounds” (priority 2003, published 2007).

How the values were obtained:
Type in all cases: cell-based, human
[1] = tested on: SK-BR-3; experiment: SRB colorimetric assay of cell growth and viability, SK-BR-3; settings: 48 hours exposure, SRB
[2] = tested on: DU-145; experiment: SRB colorimetric assay of cell growth and viability, DU-145; settings: 48 hours exposure, SRB
[3] = tested on: IGROV-ET; experiment: SRB colorimetric assay of cell growth and viability, IGROV-ET; settings: 48 hours exposure, SRB; for CC50: read-out: LC50 IGROV-ET
[4] = tested on: IGROV-1; experiment: SRB colorimetric assay of cell growth and viability, IGROV-1; settings: 48 hours exposure, SRB
[5] = tested on: A-549; experiment: SRB colorimetric assay of cell growth and viability, A-549; settings: 48 hours exposure, SRB; for GI50: read-out: GI50 A-549; for CC50: read-out: LC50 A-549
[6] = tested on: LNCaP; experiment: SRB colorimetric assay of cell growth and viability, LNCaP; settings: 48 hours exposure, SRB; for GI50: read-out: GI50 LN-caP; for CC50: read-out: LC50 LN-caP
[7] = tested on: HeLa-APL; experiment: SRB colorimetric assay of cell growth and viability, HeLa-APL; settings: 48 hours exposure, SRB; for CC50: read-out: LC50 HELA-APL
[8] = tested on: LoVo-Dox; experiment: SRB colorimetric assay of cell growth and viability, LoVo-Dox; settings: 48 hours exposure, SRB; for CC50: read-out: LC50 LOVO-DOX
Procedure, shortened: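 Human tumor cells seeded at 5×10^3/well in RPMI 1640 10% FBS, attached 18 hours, then exposed 48 hours to compound (10 to 10^−8 μg/mL). TCA-fixed, SRB-stained, OD 490 nm; triplicates give GI, TGI and LC values.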

[9] = tested on: HeLa; experiment: SRB colorimetric assay of cell growth and viability, HeLa; settings: 48 hours exposure, SRB; for CC50: read-out: LC50 HELA
[10] = tested on: K-562; experiment: SRB colorimetric assay of cell growth and viability, K-562; settings: 48 hours exposure, SRB; for CC50: read-out: LC50 K-562
[11] = tested on: LoVo; experiment: SRB colorimetric assay of cell growth and viability, LoVo; settings: 48 hours exposure, SRB; for CC50: read-out: LC50 LOVO
[12] = tested on: PANC-1; experiment: SRB colorimetric assay of cell growth and viability, PANC-1; settings: 48 hours exposure, SRB; for CC50: read-out: LC50 PANC-1
[13] = tested on: HT-29; experiment: SRB colorimetric assay of cell growth and viability, HT-29; settings: 48 hours exposure, SRB; for GI50: read-out: GI50 HT-29; for CC50: read-out: LC50 HT-29
[14] = tested on: SK-MEL-28; experiment: SRB colorimetric assay of cell growth and viability, SK-MEL-28; settings: 48 hours exposure, SRB; for CC50: read-out: LC50 MEL-28

Q: `C/C=C1\NC(=O)[C@H](Cc2ccccc2)NC(=O)[C@@H](C(C)C)NC(=O)[C@@H]([C@@H](C)CC)NC(=O)[C@H](NC(=O)[C@H](NC(=O)[C@H](CCCNC(=O)C(F)(F)F)NC(=O)[C@H]2CCCN2C(=O)[C@H](NC(=O)[C@@H](NC(=O)[C@@H](NC(=O)[C@H](NC(=O)CC[C@@H](C)CC)C(C)C)[C@@H](C)OC(=O)C(F)(F)F)C(C)C)C(C)C)[C@@H](C)CC)[C@@H](C)OC(=O)[C@H](C(C)C)NC1=O` [Compound 95, [Orn(N^δTfa)^8,Thr(OTfa)^12, 4(S)MeHex^14]-Kahalalide F] was tested. Which GI50 [1] did it give?
A: The GI50 was 73.1 nM.

Q: And the LC50 [1]?
A: Its LC50 is 520 nM.

Q: What about the “TGI SK-BR-3” value [1] of the same compound?
A: The value was 1.95E−07 Molar.

Q: What about the GI50 [2] of the same compound?
A: The GI50 was 892 nM.

Q: What about the LC50 (concentration causing 50% net cell kill) [2] of the same compound?
A: The LC50 (concentration causing 50% net cell kill) was 3360 nM.

Q: And the “TGI DU-145” value [2]?
A: The value was 1.73E−06 Molar.

Q: And the GI50 [3]?
A: The GI50 was 219 nM.

Q: And the “TGI IGROV-ET” value [3]?
A: The value was 3.77E−07 Molar.

Q: What about the CC50 [3] of the same compound?
A: Its CC50 is 916 nM.

Q: What about the GI50 [4] of the same compound?
A: Its GI50 is 178 nM.

Q: And the LC50 (concentration causing 50% net cell killing) [4]?
A: Its LC50 (concentration causing 50% net cell killing) is 550 nM.

Q: And the “TGI IGROV” value [4]?
A: The value was 3.13E−07 Molar.

Q: What about the “TGI A-549” value [5] of the same compound?
A: Its value is 2.29E−06 Molar.

Q: What about the GI50 [5] of the same compound?
A: Its GI50 is 1150 nM.

Q: And the CC50 [5]?
A: The CC50 was 4550 nM.

Q: And the “TGI LN-caP” value [6]?
A: The value was 5.99E−06 Molar.

Q: And the GI50 [6]?
A: Its GI50 is 1700 nM.

Q: What about the CC50 [6] of the same compound?
A: The CC50 was 5990 nM.

Q: What about the GI50 [7] of the same compound?
A: Its GI50 is 617 nM.

Q: What about the “TGI HELA-APL” value [7] of the same compound?
A: The value was 1.52E−06 Molar.

Q: And the CC50 [7]?
A: The CC50 was 3740 nM.

Q: What about the GI50 [8] of the same compound?
A: Its GI50 is 124 nM.

Q: What about the “TGI LOVO-DOX” value [8] of the same compound?
A: The value was 2.41E−07 Molar.

Q: What about the CC50 [8] of the same compound?
A: The CC50 was 471 nM.

Q: And the GI50 [9]?
A: Its GI50 is 162 nM.

Q: And the “TGI HELA” value [9]?
A: The value was 3.06E−07 Molar.

Q: What about the CC50 [9] of the same compound?
A: The CC50 was 579 nM.

Q: And the GI50 [10]?
A: Its GI50 is 3570 nM.

Q: What about the “TGI K-562” value [10] of the same compound?
A: The value was 5.99E−06 Molar.

Q: And the CC50 [10]?
A: Its CC50 is 5990 nM.

Q: What about the GI50 [11] of the same compound?
A: Its GI50 is 125 nM.

Q: What about the “TGI LOVO” value [11] of the same compound?
A: Its value is 2.34E−07 Molar.

Q: What about the CC50 [11] of the same compound?
A: Its CC50 is 437 nM.

Q: What about the GI50 [12] of the same compound?
A: The GI50 was 3580 nM.

Q: What about the “TGI PANC-1” value [12] of the same compound?
A: The value was 5.99E−06 Molar.

Q: What about the CC50 [12] of the same compound?
A: The CC50 was 5990 nM.

Q: And the “TGI HT-29” value [13]?
A: The value was 1.93E−07 Molar.

Q: What about the GI50 [13] of the same compound?
A: Its GI50 is 86.2 nM.

Q: What about the CC50 [13] of the same compound?
A: The CC50 was 432 nM.

Q: And the GI50 [14]?
A: Its GI50 is 1030 nM.

Q: What about the “TGI MEL-28” value [14] of the same compound?
A: Its value is 1.84E−06 Molar.

Q: What about the CC50 [14] of the same compound?
A: The CC50 was 3280 nM.

Q: For `C/C=C1\NC(=O)[C@H](Cc2ccccc2)NC(=O)[C@@H](C(C)C)NC(=O)[C@@H]([C@@H](C)CC)NC(=O)[C@H](NC(=O)[C@H](NC(=O)[C@H](CCCNC(=O)C(F)(F)F)NC(=O)[C@H]2CCCN2C(=O)[C@H](NC(=O)[C@@H](NC(=O)[C@@H](NC(=O)[C@H](NC(=O)CC[C@@H](C)CC)C(C)C)[C@@H](C)O)C(C)C)C(C)C)[C@@H](C)CC)[C@@H](C)OC(=O)[C@H](C(C)C)NC1=O` [Compound 96, [Orn(N^δTfa)^8, 4(S)MeHex^14]-Kahalalide F], which GI50 [1] is on record?
A: Its GI50 is 64.8 nM.

Q: What about the LC50 [1] of the same compound?
A: The LC50 was 560 nM.

Q: What about the “TGI SK-BR-3” value [1] of the same compound?
A: The value was 1.91E−07 Molar.

Q: What about the GI50 [2] of the same compound?
A: The GI50 was 985 nM.

Q: And the LC50 (concentration causing 50% net cell kill) [2]?
A: Its LC50 (concentration causing 50% net cell kill) is 3810 nM.

Q: And the “TGI DU-145” value [2]?
A: Its value is 1.94E−06 Molar.

Q: And the GI50 [3]?
A: Its GI50 is 178 nM.

Q: What about the “TGI IGROV-ET” value [3] of the same compound?
A: Its value is 3.32E−07 Molar.

Q: What about the CC50 [3] of the same compound?
A: Its CC50 is 619 nM.

Q: And the GI50 [4]?
A: Its GI50 is 184 nM.

Q: What about the LC50 (concentration causing 50% net cell killing) [4] of the same compound?
A: The LC50 (concentration causing 50% net cell killing) was 607 nM.

Q: And the “TGI IGROV” value [4]?
A: The value was 3.34E−07 Molar.

Q: And the “TGI A-549” value [5]?
A: The value was 2.57E−06 Molar.

Q: What about the GI50 [5] of the same compound?
A: The GI50 was 1260 nM.

Q: What about the CC50 [5] of the same compound?
A: Its CC50 is 5230 nM.

Q: What about the “TGI LN-caP” value [6] of the same compound?
A: Its value is 4.60E−06 Molar.

Q: What about the GI50 [6] of the same compound?
A: The GI50 was 1730 nM.

Q: And the CC50 [6]?
A: The CC50 was 6350 nM.

Q: And the GI50 [7]?
A: The GI50 was 686 nM.

Q: And the “TGI HELA-APL” value [7]?
A: Its value is 1.62E−06 Molar.

Q: What about the CC50 [7] of the same compound?
A: Its CC50 is 3820 nM.

Q: What about the GI50 [8] of the same compound?
A: The GI50 was 153 nM.

Q: And the “TGI LOVO-DOX” value [8]?
A: The value was 2.93E−07 Molar.

Q: And the CC50 [8]?
A: The CC50 was 559 nM.

Q: What about the GI50 [9] of the same compound?
A: The GI50 was 244 nM.

Q: And the “TGI HELA” value [9]?
A: Its value is 7.24E−07 Molar.

Q: And the CC50 [9]?
A: Its CC50 is 2590 nM.

Q: What about the GI50 [10] of the same compound?
A: Its GI50 is 4500 nM.

Q: And the “TGI K-562” value [10]?
A: Its value is 6.35E−06 Molar.

Q: What about the CC50 [10] of the same compound?
A: The CC50 was 6350 nM.

Q: What about the GI50 [11] of the same compound?
A: The GI50 was 140 nM.

Q: What about the “TGI LOVO” value [11] of the same compound?
A: Its value is 2.64E−07 Molar.

Q: What about the CC50 [11] of the same compound?
A: The CC50 was 500 nM.

Q: What about the GI50 [12] of the same compound?
A: The GI50 was 6040 nM.

Q: What about the “TGI PANC-1” value [12] of the same compound?
A: The value was 6.35E−06 Molar.

Q: What about the CC50 [12] of the same compound?
A: Its CC50 is 6350 nM.

Q: What about the “TGI HT-29” value [13] of the same compound?
A: Its value is 2.11E−07 Molar.

Q: And the GI50 [13]?
A: Its GI50 is 101 nM.

Q: And the CC50 [13]?
A: Its CC50 is 442 nM.

Q: What about the GI50 [14] of the same compound?
A: Its GI50 is 1220 nM.

Q: What about the “TGI MEL-28” value [14] of the same compound?
A: The value was 2.15E−06 Molar.

Q: And the CC50 [14]?
A: Its CC50 is 3770 nM.
